Like-named read-outs stand apart in the source and are kept apart here.
How the values were obtained:
[1] = target: T1, A156T mutant of the HCV NS3/4A 1b protease enzyme (Hepatitis C virus genotype 1b, UniProt P26663, A1182T); assay: HCV Protease FRET Assay (IC50_APP), A156T mutant; assay type: biochemical; conditions: read-out: IC50_APP, HCV A156T; apparent IC50, A156T mutant
T1 construct: 10× stocks of NS3/4A protease enzyme from Bioenza (Mountain View, Calif.); purchased Bioenza (Mountain View, Calif.)

[2] = target: T1, A156T mutant of the HCV NS3/4A 1b protease enzyme; assay: HCV Protease FRET Assay (IC50), A156T mutant; assay type: biochemical
Protocol: (§1) HCV Protease FRET Assay for Wild Type and Mutated NS3/4A 1b Enzymes (IC50)
The protocol is a modified FRET-based assay (v—02) from In Vitro Resistance Studies of HCV Serine Protease Inhibitors, 2004, JBC, vol. 279, No. 17, pp 17508-17514.
10× stocks of NS3/4A protease enzyme from Bioenza (Mountain View, Calif.) and 1.13× 5-FAM/QXL™ 520 FRET peptide substrate from Anaspec (San Jose, Calif.) were prepared in 50 mM HEPES, pH 7.8, 100 mM NaCl, 5 mM DTT and 20% glycerol. 5 μL of each enzyme were pre-incubated in a Corning (#3573) 384-well, black, non-treated microtiter plate (Corning, N.Y.) for 30 min at 25° C. with a 0.5 μL volume of 50% DMSO and serially diluted compounds prepared in 50% DMSO. Protease reactions were started with the addition of 45 μL of the FRET substrate and monitored for 120 minutes at λex487/λem514 through Quad^4 monochromoters in a Synergy^4 plate reader from BioTek (Winooski, Vt.). At the conclusion of each assay, progress curves from each well were examined for linear reaction kinetics and fit statistics (R^2, absolute sum of squares). Initial velocity (0 minutes to 30+ minutes) from each reaction was determined from the slope of a plot of relative fluorescence units vs time (minutes) and then plotted against inhibitor concentration to estimate IC50 from log[Inhibitor] vs Response, Variable Slope model in GraphPad Prism from GraphPad Software (San Diego, Calif.).
The compound numbers correspond to the compound numbers in Table 3. […] ;

[3] = target: T2, wild type HCV NS3/4A 1b protease enzyme (Hepatitis C virus genotype 1b, UniProt P26663); assay: HCV Protease FRET Assay (IC50_APP), wild type; assay type: biochemical; conditions: read-out: IC50_APP, WT; apparent IC50, wild type NS3/4A 1b
T2 construct: 10× stocks of NS3/4A protease enzyme from Bioenza (Mountain View, Calif.); purchased Bioenza (Mountain View, Calif.)

[4] = test system: cell line ET (luc-ubi-neo/ET), human Huh7 hepatoma cell line; assay: Method A: cytotoxicity in ET replicon cells (CytoTox-1); assay type: cell-based; conditions: concentration decreasing cell viability by 50%, 72 hr
Protocol: The compounds were assayed to evaluate the antiviral activity and cytotoxicity of compounds in vitro using HCV RNA replicons. This assay used the cell line ET (luc-ubi-neo/ET), which is a human Huh7 hepatoma cell line that contains an HCV RNA replicon with a stable luciferase (Luc) reporter and three cell culture-adaptive mutations. […]
The ET cell line was grown in Dulbecco's modified essential media (DMEM), 10% fetal bovine serum (FBS), 1% penicillin-streptomycin (pen-strep), 1% glutamine, 250 μg/ml G418 in a 5% CO2 incubator at 37° C. All cell culture reagents were obtained from Mediatech (Manassas, Va.). Cells were trypsinized (1% trypsin:EDTA) and plated out at 5×10^3 cells/well in white 96-well assay plates (Costar) dedicated to cell number (cytotoxicity) or antiviral activity assessments. Drugs were added at six 3-fold concentrations each and the assay was run in DMEM, 5% FBS, 1% pen-strep, 1% glutamine. Human interferon alpha-2b (PBL Biolabs, New Brunswick, N.J.) was included in each run as a positive control compound. Cells were processed 72 hr post drug addition when the cells are still subconfluent. Antiviral activity was measured by analyzing replicon-derived luciferase activity using the Steady-Glo Luciferase Assay System (Promega, Madison, Wis.) according to manufacturer's instruction. The number of cells in each well was determined by CytoTox-1 reagent (Promega). […].

[5] = target: T3, D168A mutant of the HCV NS3/4A 1b protease enzyme (Hepatitis C virus genotype 1b, UniProt P26663, D1194A); assay: HCV Protease FRET Assay (IC50_APP), D168A mutant; assay type: biochemical; conditions: read-out: IC50_APP, HCV D168A; apparent IC50, D168A mutant
T3 construct: 10× stocks of NS3/4A protease enzyme from Bioenza (Mountain View, Calif.); purchased Bioenza (Mountain View, Calif.)

[6] = target: T2, wild type HCV NS3/4A 1b protease enzyme; assay: biochemical; assay type: biochemical
Protocol: as §1
(§2) Protease reactions were started with the addition of 45 μL of the FRET substrate and monitored for 120 minutes at λex487/λem514 through Quad^4 monochromoters in a Synergy^4 plate reader from BioTek (Winooski, Vt.). At the conclusion of each assay, progress curves from each well were examined for linear reaction kinetics and fit statistics (R^2, absolute sum of squares).
(§3) The compound numbers correspond to the compound numbers in Table 3.

[7] = target: T3, D168A mutant of the HCV NS3/4A 1b protease enzyme; assay: HCV Protease FRET Assay (IC50), D168A mutant; assay type: biochemical
Protocol: as §1, §2, §3

[8] = test system: HCV RNA replicon in cell line ET (luc-ubi-neo/ET), human Huh7 hepatoma; assay: Method A: HCV RNA replicon antiviral assay (luciferase, ET cell line); assay type: cell-based, Hepatitis C virus
Method in brief: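 Six 3-fold dilutions of each drug were tested on subconfluent luc-ubi-neo/ET Huh7 replicon cells (5×10^3/well) for 72 hr at 37 °C. EC50 and EC90 came from luciferase read-out, IC50 from CytoTox-1 cell number, and […]; interferon alpha-2b was run each time as control.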

[9] = read-out: Inhibition, HCV A156T; A156T enzyme, FRET assay
[10] = read-out: Inhibition, WT; WT enzyme, FRET assay
[11] = read-out: Inhibition, HCV D168A; D168A enzyme, FRET assay
[12] = Hepatitis C virus, Huh-7, assay described in Example 22
[13] = Hepatitis C virus, Huh-7, Replicon, assay of Example 22, 72 hr, read-out: Inhibition, Replicon
[14] = Hepatitis C virus, Huh-7, assay described in Example 22, read-out: Replicon (IC50)

| Structure (SMILES) | IC50 [1] [µM] | IC50 [2, 9] [µM] | IC50 [3] [µM] | Inhibition, Cytotoxicity [4] | IC50 [5] [µM] | IC50 [6, 10] [µM] | IC50 [7, 11] [µM] | IC90 [8, 12] [µM] | IC50 [8, 13] [µM] | IC50 [8, 14] [µM] | IC50 ([2]; A156T enzyme, FRET assay; read-out: Inhibition, HCV A156T) [µM] | IC50 ([6]; WT enzyme, FRET assay; read-out: Inhibition, WT) [µM] | IC50 ([7]; D168A enzyme, FRET assay; read-out: Inhibition, HCV D168A) [µM] | IC50 ([8]; Replicon, assay of Example 22, 72 hr, read-out: Inhibition, Replicon) [µM] |
| --- | --- | --- | --- | --- | --- | --- | --- | --- | --- | --- | --- | --- | --- | --- |
| C=C[C@@H]1C[C@]1(NC(=O)[C@@H]1C[C@@H](Oc2cc(-c3ccccc3)nc3cc(OC)ccc23)CN1C(=O)[C@H](CCNC(=O)CCl)NC(=O)OC(C)(C)C)C(=O)NS(=O)(=O)c1ccccc1 [Compound I-4, (2S)-2-[[(1,1-dimethylethoxy)carbonyl]amino]-4-(chloroacetyl)amino-butanoyl-(4R)-4-[(7-methoxy-2-phenyl-4-quinolinyl)oxy]-L-prolyl-1-amino-2-ethenyl-N-(phenylsulfonyl)-(1R,2S)-cyclopropanecarboxamide] | 0.1 to 1 | 0.01 to 0.1 | < 0.01 | D (IC50>1000 nM and <10,000 nM) | 0.1 to 1 | < 0.01 | 0.01 to 0.1 | 0.1 to 1 | 0.01 to 0.1 | 0.01 to 0.1 |  |  |  |  |
| C=CC(=O)NCC[C@H](NC(=O)OC(C)(C)C)C(=O)N1C[C@H](Oc2cc(-c3ccccc3)nc3cc(OC)ccc23)C[C@H]1C(=O)N[C@]1(C(=O)NS(=O)(=O)c2ccccc2)C[C@H]1C=C [Compound I-8, (2S)-2-[[(1,1-dimethylethoxy)carbonyl]amino]-4-(2-propenoyl)amino-butanoyl-(4R)-4-[(7-methoxy-2-phenyl-4-quinolinyl)oxy]-L-prolyl-1-amino-2-ethenyl-N-(phenylsulfonyl)-(1R,2S)-cyclopropanecarboxamide] |  | 0.01 to 0.1 |  | D (IC50>1000 nM and <10,000 nM) |  | < 0.01 | 0.01 to 0.1 |  | 0.1 to 1 |  |  |  |  |  |
| C=C[C@@H]1C[C@]1(NC(=O)[C@@H]1C[C@@H](Oc2cc(-c3ccccc3)nc3cc(OC)ccc23)CN1C(=O)[C@H](CCN(C)C(=O)CCl)NC(=O)OC(C)(C)C)C(=O)NS(=O)(=O)c1ccccc1 [Compound I-9, (2S)-2-[[(1,1-dimethylethoxy)carbonyl]amino]-4-(chloroacetyl)methylamino-butanoyl-(4R)-4-[(7-methoxy-2-phenyl-4-quinolinyl)oxy]-L-prolyl-1-amino-2-ethenyl-N-(phenylsulfonyl)-(1R,2S)-cyclopropanecarboxamide] | 0.01 to 0.1 | < 0.01 | < 0.01 | C (IC50>100 nM and ≦1000 nM) | 0.1 to 1 | < 0.01 | < 0.01 | > 10 | 0.01 to 0.1 | 0.01 to 0.1 |  |  |  |  |
| C=C[C@@H]1C[C@]1(NC(=O)[C@@H]1C[C@@H](Oc2cc(-c3ccccc3)nc3cc(OC)ccc23)CN1C(=O)[C@H](Cn1sc2ccccc2c1=O)NC(=O)OC(C)(C)C)C(=O)NS(=O)(=O)c1ccccc1 [Compound I-10, N-[(1,1-dimethylethoxy)carbonyl]-3-(benzoisothiazolin-3-one-2-yl)-L-alanyl-(4R)-4-[(7-methoxy-2-phenyl-4-quinolinyl)oxy]-L-prolyl-1-amino-2-ethenyl-N-(phenylsulfonyl)-(1R,2S)-cyclopropanecarboxamide] |  | 0.01 to 0.1 |  | D (IC50>1000 nM and <10,000 nM) |  | < 0.01 | 0.01 to 0.1 |  | 0.1 to 1 |  |  |  |  |  |
| C=C[C@@H]1C[C@]1(NC(=O)[C@@H]1C[C@@H](Oc2cc(-c3ccccc3)nc3cc(OC)ccc23)CN1C(=O)[C@H](CCNC(=O)C(C)Br)NC(=O)OC(C)(C)C)C(=O)NS(=O)(=O)c1ccccc1 (some centres unmarked) [Compound I-20] |  | 0.1 to 1 |  | D (IC50>1000 nM and <10,000 nM) |  | < 0.01 | 0.1 to 1 |  | 0.1 to 1 |  |  |  |  |  |
| C=C[C@@H]1C[C@]1(NC(=O)[C@@H]1C[C@@H](Oc2cc(-c3ccccc3)nc3cc(OC)ccc23)CN1C(=O)[C@H](CNC(=O)C(Cl)c1ccccc1)NC(=O)OC(C)(C)C)C(=O)NS(=O)(=O)c1ccccc1 (stereo partly drawn) [Compound I-23, tert-butyl(S)-3-(2-chloro-2-phenylacetamido)-1-((2S,4R)-4-(7-methoxy-2-phenylquinolin-4-yloxy)-2-((1R,2S)-1-(phenylsulfonylcarbamoyl)-2-vinylcyclopropylcarbamoyl)pyrrolidin-1-yl)-1-oxopropan-2-ylcarbamate] |  | 1 to 10 |  | D (IC50>1000 nM and <10,000 nM) |  | < 0.01 | 0.1 to 1 |  | 0.1 to 1 |  |  |  |  |  |
| C=C[C@@H]1C[C@]1(NC(=O)[C@@H]1C[C@@H](Oc2cc(-c3ccccc3)nc3cc(OC)ccc23)CN1C(=O)[C@H](CN(C)C(=O)CCl)NC(=O)OC(C)(C)C)C(=O)NS(=O)(=O)c1ccccc1 [Compound I-29, tert-butyl-(S)-3-(2-chloro-N-methylacetamido)-1-((2S,4R)-4-(7-methoxy-2-phenylquinolin-4-yloxy)-2-((1R,2S)-1-(phenylsulfonylcarbamoyl)-2-vinylcyclopropylcarbamoyl)pyrrolidin-1-yl)-1-oxopropan-2-ylcarbamate] |  | < 0.01 |  | C (IC50>100 nM and ≦1000 nM) |  | < 0.01 | < 0.01 |  | 0.01 to 0.1 |  |  |  |  |  |
| C=C[C@@H]1C[C@]1(NC(=O)[C@@H]1C[C@@H](Oc2cc(-c3ccccc3)nc3cc(OC)ccc23)CN1C(=O)[C@H](CNC(=O)CC)NC(=O)OC(C)(C)C)C(=O)NS(=O)(=O)c1ccccc1 [I^R-3, N-[(1,1-dimethylethoxy)carbonyl]-3-[(propionyl)amino]-L-alanyl-(4R)-4-[(7-methoxy-2-phenyl-4-quinolinyl)oxy]-L-prolyl-1-amino-2-ethenyl-N-(phenylsulfonyl)-(1R,2S)-cyclopropanecarboxamide] |  |  |  | E (IC50≧10,000 nM) |  |  |  |  |  |  | 0.01 to 0.1 | < 0.01 | 0.1 to 1 | 1 to 10 |
